The text below walks through data of patent publication US7192746B2, “α-Isomaltosyltransferase, process for producing the same and use thereof” (Kabushiki Kaisha Hayashibara Seibutsu Kagaku Kenkyujo, priority 2000, dated 2007).

One data set is described as follows: Thermostability. In kind it is physicochemical. To be noted: 10% (w/v) aqueous solution, 120° C.; for Purity: HPLC. On the procedure: After the heating, the aqueous solution was cooled under atmospheric conditions and measured for coloration degree and determined for purity on HPLC in Experiment 1. The coloration degree was evaluated based on the absorbance in a cell with a 1-cm light pass at a wavelength of 480 nm.

The nature of the next data set: pH stability. It is filed as physicochemical. The following applies: 4% (w/v), 100° C., 24 hours; for Purity: HPLC. As for the experimental part:
Eight milliliters of each solution was placed in a glass test tube, followed by sealing the test tube and heating the solution at 100° C. for 24 hours. After cooling under atmospheric conditions, each solution was measured for coloration degree and determined for purity on HPLC. The coloration degree was evaluated based on the absorbance in a cell with a 1-cm light pass at a wavelength of 480 nm.

Data set [1] in a line: Amino carbonyl reaction with glycine. In kind it is physicochemical. To be noted: 10% (w/v) with 1% (w/v) glycine, pH 7.0, 100° C. As for the experimental part:
Four milliliter aliquots of the resulting solution were placed in glass test tubes, sealed, and heated at 100° C. for 30 to 90 min. After allowing to stand for cooling at ambient temperature, each of the resulting solutions was measured for coloration degree to examine their amino carbonyl reactivity. The coloration degree was evaluated based on the absorbance in a cell with 1-cm light pass at a wavelength of 480 nm.

Data set [2] relates to internal content of rat cecum. The data set is described as follows: Fermentation test. In kind it is in vitro ADME. On the procedure: The internal content of rat cecum was collected by anesthetizing a Wister male rat with ether, allowing the rat to die, collecting the internal content under anaerobic conditions, and suspending the resultant with 4-fold volumes of a 0.1 M aqueous solution of sodium bicarbonate. Cyclotetrasaccharide was added in an amount of about 7% by weight to the weight of the internal contents of rat cecum, and the contents of cyclotetrasaccharide, which still remained just after and 12 hours after the addition of the internal contents, were quantified on gas chromatography.

Data set [3] relates to Bacteroides vulgatus JCM 5826 strain. The data set is described as follows: Assimilation test. It is filed as cell-based. The following applies: PYF medium with 0.5% saccharide, 37° C., four days, anaerobic.
For data set [4], the system named is Clostridium perfringens JCM 3816 strain. It is filed as cell-based. The following applies: PYF medium with 0.5% saccharide, 37° C., four days, anaerobic.
Data set [5] concerns Eubacterium aerofaciens ATCC 25986 strain. In words: Assimilation test. In kind it is cell-based. The following applies: PYF medium with 0.5% saccharide, 37° C., four days, anaerobic.
Data set [6] relates to Lactobacillus acidophilus JCM 1132 strain. In words: Assimilation test. It is filed as cell-based. The following applies: PYF medium with 0.5% saccharide, 37° C., four days, anaerobic.
The next data set has as its target T1, salivary amylase (Homo sapiens, UniProt P0DUB6).
T1 sequence (P0DUB6 16-511): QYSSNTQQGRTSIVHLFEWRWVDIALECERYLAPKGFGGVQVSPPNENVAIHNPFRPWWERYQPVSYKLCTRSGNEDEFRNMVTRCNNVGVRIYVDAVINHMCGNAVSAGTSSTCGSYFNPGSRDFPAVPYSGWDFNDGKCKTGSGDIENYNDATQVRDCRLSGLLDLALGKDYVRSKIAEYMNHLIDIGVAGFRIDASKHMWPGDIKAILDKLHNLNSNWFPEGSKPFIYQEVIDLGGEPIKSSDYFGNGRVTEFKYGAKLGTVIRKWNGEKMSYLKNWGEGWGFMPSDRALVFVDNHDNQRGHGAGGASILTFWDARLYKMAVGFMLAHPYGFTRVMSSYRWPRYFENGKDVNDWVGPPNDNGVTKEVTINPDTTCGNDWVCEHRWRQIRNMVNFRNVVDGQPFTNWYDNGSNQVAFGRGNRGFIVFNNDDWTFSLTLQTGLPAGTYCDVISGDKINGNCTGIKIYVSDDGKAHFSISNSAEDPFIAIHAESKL

The test system of data set [7] is small intestinal mucosal enzyme.
The nature of a further data set: Digestion test in vitro. To be noted: Synthetic gastric juice.

Consider `OCC1OC2OCC3O[C@H](O[C@H]4C(O)C(CO)OC(OCC5O[C@H](O[C@@H](C1O)C2O)C(O)C(O)[C@@H]5O)C4O)C(O)C(O)[C@@H]3O` (stereo partly drawn) [Cyclotetrasaccharide, cyclo{→6)-α-D-glucopyranosyl-(1→3)-α-D-glucopyranosyl-(1→6)-α-D-glucopyranosyl-(1→3)-α-D-glucopyranosyl-(1→}], for which the “Coloration degree (A480 nm)” value in “Thermostability” (heating time 0 min), in “Thermostability” (heating time 30 min), in the data set “Thermostability” (heating time 60 min), in the data set “Thermostability” (heating time 90 min), in the data set “pH stability” (pH 2.0 (Acetate buffer)) and in the data set “pH stability” (pH 3.0 (Acetate buffer)) was 0.00 each time. For the same molecule, the “Coloration degree (A480 nm)” value in the data set “pH stability” (pH 4.0 (Acetate buffer)), in the data set “pH stability” (pH 5.0 (Acetate buffer)), in “pH stability” (pH 6.0 (Tris-HCl buffer)), in the data set “pH stability” (pH 7.0 (Tris-HCl buffer)), in the data set “pH stability” (pH 8.0 (Tris-HCl buffer)) and in the data set “pH stability” (pH 9.0 (Ammonium buffer)) was 0.00 each time. For the same molecule, the “Coloration degree (A480 nm)” value (in the data set “pH stability” (pH 10.0 (Ammonium buffer)); in data set [1] (heating time 0 min); in data set [1] (heating time 30 min); in data set [1] (heating time 60 min); in data set [1] (heating time 90 min)) was 0.00 in each case. In addition, the Purity in “Thermostability” (heating time 0 min) amounted to 100%; in the data set “Thermostability” (heating time 30 min), 100%; in “Thermostability” (heating time 60 min), 100%; in the data set “Thermostability” (heating time 90 min) it was 100%; in “pH stability” (pH 2.0 (Acetate buffer)), 93%; in “pH stability” (pH 3.0 (Acetate buffer)), 100%. The Purity in the data set “pH stability” (pH 4.0 (Acetate buffer)), in the data set “pH stability” (pH 5.0 (Acetate buffer)), in “pH stability” (pH 6.0 (Tris-HCl buffer)), in “pH stability” (pH 7.0 (Tris-HCl buffer)), in “pH stability” (pH 8.0 (Tris-HCl buffer)) and in “pH stability” (pH 9.0 (Ammonium buffer)) was 100% in each case. The Purity in “pH stability” (pH 10.0 (Ammonium buffer)) was 100%. For the same molecule, the “Cyclotetrasaccharide remained without being fermented” value in [2] (12 hours) was determined as 93%. Moreover, the results for the “Content of cyclotetrasaccharide remaining” value in data set [2] (12 hours after the addition) and in data set [2] (just after the addition) were 63.0 mg per one gram of the internal contents of rat cecum and 68.0 mg per one gram of the internal contents of rat cecum, respectively. For the same molecule, the Assimilability result in [3], in data set [4], in data set [5] and in [6] was “− (negative (−) when the post culture had a pH of 6.0 or higher)” each time. The figures for the “Decomposition percentage by digestive enzyme” value (on salivary amylase; in [7]) were 0.0% and 0.74%, respectively. The “Digestibility by intestinal mucosal enzyme relative to maltitol” value in [7] was “⅕”.
For `OC[C@@H](O)[C@@H](O[C@H]1O[C@H](CO)[C@@H](O)[C@H](O)[C@H]1O)[C@H](O)[C@@H](O)CO` [Maltitol, maltitol], the “Decomposition percentage by digestive enzyme” value in the data set “Digestion test in vitro” is recorded as 0.0%.
